Measurements reported in US7314726B2, “Beta secretase exosite binding peptides and methods for identifying beta secretase modulators” (Bristol-Myers Squibb Company, priority 2002, dated 2008).
One block for each compound: values may come before it. Alexa488 = Alexa Fluor 488 fluorescent label

Key:
BACE [1] = molecular target: T1, BACE (Homo sapiens, UniProt P56817); test: Competitive binding assay, displacement of labeled EBP from BACE, fluorescence anisotropy; design: The cDNA for the catalytic domain of human BACE (residues 1-460) was PCR-amplified; human IgG1 heavy chain (C, cleaved yes); thrombin cleavage site (C); made in house; host or cells: CHO DG44 cells (stably transfected, secreted)
Experimental: The competitive binding assay was carried out at pH 7.1 (PBS buffer) or pH 4.5 (50 mM acetate buffer). The fluorescence anisotropy was measured at 25° C. in an AVIV fluorometer. The excitation and emission wavelengths were set to 495 and 519 nm, respectively. The excitation and emission slit widths were 4 and 10 nm, respectively.
The initial anisotropy value was measured. A concentrated unlabeled peptide or compound stock was titrated into the above solution of EBP and BACE. The final concentration of unlabeled peptide or compound ranges from 20 to 20000 nM. After each addition, the solution was mixed for 10 times with a pipettor. The fluorescence anisotropy was averaged over a 5 minute period.
The change in anisotropy was converted to fractional occupancy based on the r0 and rb obtained from the binding assay. The fractional occupancy was then plotted against the concentration of the competing peptide or compound. (see, for example, FIG. 6) The Kd of the competing ligand was calculated from curve fitting using the program […]™ (Synergy Software, Reading, Pa.). The equation used to fit the competition data is identical to equation 4 in Lai et al., (2000) Arch. Biochem. Biophys. 381:278-284.
The truncated unlabeled peptides were screened at a single concentration of 10 μM at pH 4.5. The anisotropy values detected with Molecule X in the absence of inhibitor, i.e., truncated unlabeled peptide (ra) and in the presence of the inhibitor (rb) and the labeled peptide alone (r0) were used to calculate the percent of inhibition: 100 (ra-rb)/(ra-r0). The percent of inhibition was compared among the truncated peptides.

BACE [2] = molecular target: T1, BACE; test: Phage ELISA of phage-displayed peptides on immobilised BACE; format: binding; design: The cDNA for the catalytic domain of human BACE (residues 1-460) was PCR-amplified; human IgG1 heavy chain (C, cleaved yes); thrombin cleavage site (C); made in house; host or cells: CHO DG44 cells (stably transfected, secreted); conditions: clones from solid phase panning at pH 7.0
Experimental: Two highly selected and homologous 12 mer phage peptides bound BACE specifically and reproducibly in phage-ELISA tests. Bristol-Myers Squibb fUSE5-based C4C, C6C, 5- and 15 mer libraries, and M13-based C7C libraries, and 7- and 12 mer libraries obtained from New England Biolabs, Beverly, Mass. were panned for three cycles against BACE (produced as described herein in Example 3). BACE was immobilized by coating at 0.5 μg/well in 4 wells of Dynex Immulon 4HBX plates overnight at 4° C. in 0.1M NaHCO3 buffer, pH 9.0. Panning was by standard procedures at room temperature that involved blocking wells with 2% BSA in PBS and elution with 0.1M HCL, pH 2.2. The vector NTI alignment tool and visual inspection of sequences were employed to analyze the selected peptides.
After sequencing approximately 20-50 clones from each library after three cycles of selection, we prepared essentially all possible candidate clones (39 clones in total) for phage-ELISA to obtain direct evidence for affinity to BACE. […] We therefore sequenced additional 12 mer clones to try to find additional candidate clones. […] This […] (SEQ ID NO:20) peptide is homologous to […] (SEQ ID NO:19) and consistent with the specific binding of both those peptides to BACE. The […] (SEQ ID NO:20) peptide and […] (SEQ ID NO:19) peptides were the two most efficiently recovered clones with 13 and 9 copies, respectively. […]

BACE [3] = molecular target: T1, BACE; test: Isothermal titration calorimetry (ITC) of BACE and peptides; format: binding; design: The cDNA for the catalytic domain of human BACE (residues 1-460) was PCR-amplified; human IgG1 heavy chain (C, cleaved yes); thrombin cleavage site (C); made in house; host or cells: CHO DG44 cells (stably transfected, secreted); conditions: 25° C.
Experimental: Isothermal titration calorimetry was performed to determine quantitatively the binding affinities of BMS-561877 and BMS-561871 for β-secretase. Recombinant human BACE was expressed as a fusion protein with human IgG1, in Chinese hamster ovary (CHO) cells (Vassar et al., (1999) Science 286:735-741 and Haniu et al., (2000) J. Biol. Chem. 275:21099-21106).
This construct, referred to as BACE-T-IgG, also contained a protease cleavage site between BACE and IgG1, sensitive to human α-thrombin. The cDNA for the catalytic domain of human BACE (residues 1-460) was PCR-amplified and subcloned into the mammalian expression vector pTV1.6, upstream of a thrombin cleavage site linked to cDNA encoding human IgG1 heavy chain. The vector construct, pTV1.6-BACE-T-IgG, was used to produce stably transfected DHFR-deficient CHO DG44 cells, which were then scaled up using methotrexate for selection.
The clarified growth media harvested from CHO DG44 cells which contained the fusion protein was loaded onto a rProtein A SEPHAROSE™ column (5×20 cm, Amersham Pharmacia Biotech) using a peristaltic pump at 4° C., at 4 mL/min. The column was washed with Dulbecco's PBS, pH 7.1, 4 mL/min, until baseline absorbance at 280 nm was observed. BACE-T-IgG was eluted from the resin with 0.10 M citrate, pH 3.0, into tubes containing 0.5 volumes of 4 M Tris, pH 8. Fractions containing the fusion protein were dialyzed extensively using 12,000-14,000 […] MWCO membrane (UltraPURE, GIBCO BRL) against PBS, pH 7.1, at 4° C. The protein was sterile filtered (0.22 μm) and stored at 4° C.
To generate BACE for binding experiments, the fusion protein BACE-T-IgG was treated with human α-thrombin (Enzyme Research Labs, South Bend, Ind.) at a ratio of 1:500 (mass:mass) in Dulbecco's PBS, pH 7.1, at 37° C. for 2 hr. Human α-thrombin was removed by passing the sample over Benzamidine SEPHAROSE™ 6B column (Amersham Pharmacia Biotech). The cleaved IgG1 was captured by passing the solution over a rProtein A SEPHAROSE™ (Amersham Pharmacia Biotech) column, whereas the BACE passed through this column. The protein sample was further purified by concentrating to 10-15 mg/mL using a centrifugation concentration unit (Millipore Ultrafree 10 kDa MWCO, 15 mL unit) and loading onto a SUPERDEX™ 200 PC 3.2/30 gel-filtration column (Amersham Pharmacia Biotech). The column was run at 3 mL/min with Dulbecco's PBS, pH 7.1, at room temperature. Fractions containing BACE were combined, sterile filtered (0.22 μm) and stored at 4° C.
BACE was prepared for isothermal titrating calorimetry by extensive dialysis against fresh buffer at 4° C. using 12,000-14,000 […] MWCO dialysis membrane (UltraPURE, GIBCO BRL). […] Following 2 buffer changes, the protein was removed from the membrane and centrifuged (5 min×4000 g, 4° C.) to remove particulates. The protein was stored at 4° C. until needed for the calorimetry experiments. The protein concentration was determined by 10-fold dilution into the same buffer, and measuring the UV absorbance at 280 nm in a 1.00 cm pathlength cell (calculated value=1.22 AU=1.00 mg/mL protein, based on mean glycosylated molecular weight=53.5 kDa, and given amino acid composition). Final concentrations used in isothermal titrating calorimetry were typically 5.0 μM, containing a final concentration of 0.5% v/v DMSO.
Peptides were dissolved in the buffer dialysate from protein dialysis, and equal volumes of DMSO were added to each (0.5% v/v DMSO). The pH values of the solutions were adjusted as necessary to equal that of the buffer dialysate and protein sample within 0.01 pH units.

[4] = molecular target: T2, catalytic domain of human BACE expressed in a CHO cell line (Homo sapiens, UniProt P56817); test: Fluorescently labeled EBP binding to BACE, fluorescence anisotropy; conditions: pH 4.5 (50 mM acetate), 25° C., 1:1 binding model; read-out: binding constant (Kd) of labeled EBP
T2 construct: The cDNA for the catalytic domain of human BACE (residues 1-460) was PCR-amplified; human IgG1 heavy chain (C, cleaved yes); thrombin cleavage site (C); made in house; host or cells: CHO DG44 cells (stably transfected, secreted)
Experimental: An assay to evaluate the binding of BACE to EBPs labeled with a fluorescent molecule (for example, but not limited to Alexa488) was developed. This assay uses the catalytic domain of human BACE expressed in a CHO cell line (according to Example 3) and labeled EBPs such as Molecule X shown in FIG. 4. The change in fluorescent anisotropy of the EBP peptide upon binding to BACE is monitored.
Peptides were dissolved in 100% DMSO (dimethyl sulfoxide) at 10 mM concentration, and then diluted 10-fold into deionized water. The concentration of the labeled peptides was determined by their absorbance at 495 nm (ε=71000 cm^−1M^−1). The concentration of selected unlabeled peptides was determined by their Tyr absorbance at 276 nm (ε=1390 cm^−1M^−1 per Tyr residue).
The binding was carried out at pH 7.1 (PBS buffer) and pH 4.5 (50 mM acetate buffer) in the presence of 1% DMSO. Fluorescence anisotropy was measured at 25° C. in an AVIV fluorometer. The excitation and emission wavelengths were set to 495 and 519 nm, respectively. The excitation and emission slit width were 4 and 10 nm, respectively. A concentrated BACE stock was used to titrate a 300 μl solution of 10 nM labeled EBP. The final BACE concentration ranges from 10 to 5000 nM. After the addition of BACE, the solution was mixed for 10 times with a pipettor. The fluorescence anisotropy was averaged over a 5 minute period.
The change in anisotropy was plotted against the BACE concentration (see, for example, FIG. 5). The Kd of the labeled EBP as well as the initial (r0) and final anisotropy (rb) of the labeled EBP were calculated from curve fitting using the program Kaleidagraph. The equation used to fit the binding data is identical to equation 1 in Lai et al., (2000) Arch. Biochem. Biophys. 381:278-284.

T1 sequence (P56817 46-460 limits assumed): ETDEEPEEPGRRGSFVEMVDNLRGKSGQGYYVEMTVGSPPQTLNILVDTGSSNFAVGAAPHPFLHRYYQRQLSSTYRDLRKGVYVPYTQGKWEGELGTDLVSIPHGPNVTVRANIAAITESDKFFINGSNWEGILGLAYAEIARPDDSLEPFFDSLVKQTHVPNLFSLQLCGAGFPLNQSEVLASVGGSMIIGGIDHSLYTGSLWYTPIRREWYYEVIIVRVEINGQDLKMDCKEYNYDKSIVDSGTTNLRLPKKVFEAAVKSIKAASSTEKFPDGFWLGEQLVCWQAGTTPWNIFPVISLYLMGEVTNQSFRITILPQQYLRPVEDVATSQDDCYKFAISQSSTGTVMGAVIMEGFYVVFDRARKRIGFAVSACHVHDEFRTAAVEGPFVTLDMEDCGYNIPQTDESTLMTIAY
T2 sequence (P56817 46-460 limits assumed): as above

Kd (BACE [1]; pH 4.5, displacement of Molecule Y1, read-out: Kd of unlabeled EBP by competition): 1200 nM
Compound: CC[C@H](C)[C@H](NC(=O)[C@H](Cc1ccccc1)NC(=O)[C@H](Cc1ccc(O)cc1)NC(=O)[C@@H]1CCCN1C(=O)[C@H](Cc1ccc(O)cc1)NC(C)=O)C(=O)N1CCC[C@H]1C(=O)N[C@@H](CC(C)C)C(N)=O [BMS-593925, Tyr-Pro-Tyr-Phe-Ile-Pro-Leu]

phage ELISA binding to BACE (BACE [2]): specific binding to BACE
Compound: Ac-ALYPYFLPISAK-NH2 [BMS-561877]

KA (BACE [3]; 50 mM NaOAc, pH 4.5): 610000 M⁻¹
Kd (BACE [3]; 50 mM NaOAc, pH 4.5): 1640 nM
TΔS (BACE [3]; 50 mM NaOAc, pH 4.5): -5.46 kcal/mol
ΔG (BACE [3]; 50 mM NaOAc, pH 4.5): -7.90 kcal/mol
ΔH (BACE [3]; 50 mM NaOAc, pH 4.5): -13.35 kcal/mol
KA (BACE [3]; Dulbecco's PBS, pH 7.0): 1.09e+06 M⁻¹
Kd (BACE [3]; Dulbecco's PBS, pH 7.0): 914 nM
TΔS (BACE [3]; Dulbecco's PBS, pH 7.0): -9.81 kcal/mol
ΔG (BACE [3]; Dulbecco's PBS, pH 7.0): -8.23 kcal/mol
ΔH (BACE [3]; Dulbecco's PBS, pH 7.0): -18.04 kcal/mol
Compound: Ac-HWPFFIRS-NH2 [BMS-655507]

binding to BACE (BACE [1]; scrambled peptide): does not bind to BACE
Compound: LYPPYIF (Ac-LYPPYIF-NH2) [BMS-599271, scrambled peptide containing the same amino acids as BMS-593925]

Kd [4]: 92 nM
Compound: Molecule Y2: analog of Molecule Y1 with different length of linker between Alexa488 and the peptide (Ac-YPYFIPL-Alexa488; also: linker between peptide and Alexa488 not given here)

Kd [4]: 62 nM
Compound: Molecule Y4: analog of Molecule Y1 with different length of linker between Alexa488 and the peptide (Ac-YPYFIPL-Alexa488; also: linker between peptide and Alexa488 not given here)
